This is an account of results in PMC2929754 (The Journal of parasitology, 2009).

The test has as its target T. cruzi lipoamide dehydrogenase (TcLipDH) (Trypanosoma cruzi, UniProt P90597). The test is described as follows: Recombinant enzyme kinetics. The format is biochemical.

Sequence of T. cruzi lipoamide dehydrogenase (TcLipDH) (P90597 whole entry): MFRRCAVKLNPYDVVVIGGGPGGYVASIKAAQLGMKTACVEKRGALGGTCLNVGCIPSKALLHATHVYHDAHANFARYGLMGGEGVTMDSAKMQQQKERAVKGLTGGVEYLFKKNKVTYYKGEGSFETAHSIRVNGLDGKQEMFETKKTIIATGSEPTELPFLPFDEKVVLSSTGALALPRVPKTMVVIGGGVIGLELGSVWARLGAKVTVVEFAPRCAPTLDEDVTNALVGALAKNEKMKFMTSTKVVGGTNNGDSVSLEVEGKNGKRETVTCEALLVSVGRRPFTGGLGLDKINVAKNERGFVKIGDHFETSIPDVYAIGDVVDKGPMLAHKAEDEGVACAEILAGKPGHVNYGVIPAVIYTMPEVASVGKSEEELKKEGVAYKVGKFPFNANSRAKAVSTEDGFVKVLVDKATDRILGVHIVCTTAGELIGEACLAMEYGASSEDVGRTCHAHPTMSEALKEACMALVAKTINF

Turning to `O=C1C(c2ccccc2)=C(c2ccccc2)C(=O)c2ccccc21` [DPNQ, 2,3-diphenyl-1,4-naphthoquinone], the Ki (in general, the equilibrium dissociation constant of an inhibitor or competing ligand from its target) was found to be 29 µM.
